From patent US4966889A, “Treatment of inflammatory articular diseases” (Industria Farmaceutica Serono SpA, priority 1986, dated 1990)
“Also recorded” adds a separate entry of the source.

What was measured:
[1] = system: patients affected by polyarticular RA; assay: Evaluation of efficacy of therapies in course prior to treatment; format: in vivo, human; parameters: key to Efficacy of present therapy: Nil; Scarce; Good; Excellent; details: single cases
Text: (§1) With reference to each of the clinical cases taken into consideration, supplied below are the particulars relevant to diagnosis, evaluation of efficacy of therapies in course prior to treatment (Nil, Scarce, Good, Excellent), and finally the clinical observations after treatment with Somatostatin (SS) or with Placebo (PL).

[2] = system: patients affected by polyarticular RA (knee joint); assay: Double-blind trial versus placebo: clinical observations and side effects; format: in vivo, human; details: at the moment of administration or in the following days; 750 micrograms into knee joint
Method: Clinical efficacy of Somatostatin was verified by means of a double-blind trial versus placebo.
17 patients affected by polyarticular RA were selected for the trial. Each patient was informed about the experimental nature of the treatment. The articular site chosen for the study was the knee.
In accordance with the double-blind procedure (Somatostatin versus placebo), 10 patients were treated with Somatostatin ("STILAMIN", 750 micrograms) injected inside the knee joint.
Clinical observations were carried out at time 0, each 10 minutes of the first hour, than at hourly intervals for 3 hours. A further evaluation was made after one week; during the period between the treatment and the evaluation on the seventh day, the patients filled out a table for selfevaluation. Parameters chosen were Ritchie's Index and Huskisson's Scale of Pain, evaluation of pain being made when walking, upon flexion and supine.
as §1

[3] = single drug in course prior to treatment
[4] = Piroxicam 20 mg together with 6-alpha-methylprednisolone (8 mg or 4 mg)

COc1ccc2cc([C@H](C)C(=O)O)ccc2c1 [Naproxen]
Efficacy of present therapy [1, 3]: Good
Efficacy of present therapy ([1]; single drug in course prior to treatment, listed as Naproxene): Good and Scarce

CC(C(=O)O)c1ccc(C(=O)c2ccccc2)s1 (centres unmarked) [Thiaprophenic Acid]
Efficacy of present therapy [1, 3]: Nil and Scarce

C[C@H](N)C(=O)NCC(=O)N[C@H]1CSSC[C@@H](C(=O)O)NC(=O)[C@H](CO)NC(=O)[C@H]([C@@H](C)O)NC(=O)[C@H](Cc2ccccc2)NC(=O)[C@H]([C@@H](C)O)NC(=O)[C@H](CCCCN)NC(=O)[C@H](Cc2c[nH]c3ccccc23)NC(=O)[C@H](Cc2ccccc2)NC(=O)[C@H](Cc2ccccc2)NC(=O)[C@H](CC(N)=O)NC(=O)[C@H](CCCCN)NC1=O [Somatostatin]
clinical side effects [2]: No verifiable clinical side effects

CC(C(=O)O)c1cccc(C(=O)c2ccccc2)c1 (centres unmarked) [Ketoprofene]
Efficacy of present therapy [1, 3]: Nil

CN1C(C(=O)Nc2ccccn2)=C(O)c2ccccc2S1(=O)=O [Piroxicam]
Efficacy of present therapy [1, 4]: Scarce
Efficacy of present therapy [1, 3]: Scarce

O=C(O)Cc1ccccc1Nc1c(Cl)cccc1Cl [Diclofenac]
Efficacy of present therapy [1, 3]: Scarce

CCN(CCO)CCCC(C)Nc1ccnc2cc(Cl)ccc12 (centres unmarked) [Hydroxychloroquine]
results of basic therapy (case history) ([1]; before the trial): scarce results; also recorded: Disease still in acute phase

C[C@H]1C[C@@H]2[C@H]([C@@H](O)C[C@@]3(C)[C@H]2CC[C@]3(O)C(=O)CO)[C@@]2(C)C=CC(=O)C=C12 [6-alpha-methylprednisolone]
Efficacy of present therapy [1, 4]: Scarce
Efficacy of present therapy [1, 3]: Scarce
